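Exposure lasted 48 hours, with cells grown in 96-well plates and compounds tested at five concentrations. The concentration for 50% growth inhibition is given as GI50.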 The source made the active and inactive calls. Rule as the data show it: active = GI50 up to about 1.1 µM and inactive = higher.
Assays:
Experiment in all cases: inhibition of tumour cell growth, NCI panel, 48 h
[1] = tested on: SNB-19
[2] = tested on: SNB-75
[3] = tested on: RPMI-8226
[4] = tested on: Malme-3M
[5] = tested on: COLO 205
[6] = tested on: A549
[7] = tested on: Hs-578T
[8] = tested on: MDA-MB-435
[9] = tested on: UO-31
[10] = tested on: NCI-H522
[11] = tested on: NCI-H226
[12] = tested on: 786-0
[13] = tested on: U-251
[14] = tested on: HT-29
[15] = tested on: SF-268
[16] = tested on: RXF 393
[17] = tested on: OVCAR-4
[18] = tested on: SN12C
[19] = tested on: UACC-62
[20] = tested on: M14

| SMILES | GI50 [1] | GI50 [2] | GI50 [3] | GI50 [4] | GI50 [5] | GI50 [6] | GI50 [7] | GI50 [8] | GI50 [9] | GI50 [10] | GI50 [11] | GI50 [12] | GI50 [13] | GI50 [14] | GI50 [15] | GI50 [16] | GI50 [17] | GI50 [18] | GI50 [19] | GI50 [20] |
| --- | --- | --- | --- | --- | --- | --- | --- | --- | --- | --- | --- | --- | --- | --- | --- | --- | --- | --- | --- | --- |
| Nc1nc(Cl)cc(NCC2(O)CC(CO)C2)n1 (stereo not drawn) | > 100 µM (inactive) | > 100 µM (inactive) | > 100 µM (inactive) | > 100 µM (inactive) | > 100 µM (inactive) | > 100 µM (inactive) | > 100 µM (inactive) | > 100 µM (inactive) | > 100 µM (inactive) | > 100 µM (inactive) | > 100 µM (inactive) | > 100 µM (inactive) | > 100 µM (inactive) | > 100 µM (inactive) | > 100 µM (inactive) | > 100 µM (inactive) | > 100 µM (inactive) | > 100 µM (inactive) | > 100 µM (inactive) | – |
| C[C@]12CC[C@@H]3c4ccc(OC(=O)c5ccccc5)cc4CC[C@H]3[C@@H]1CC[C@@H]2Oc1c2ccccc2nc2ccccc12 | 7.45 µM (inactive) | 10 µM (inactive) | 7.69 µM (inactive) | 7.94 µM (inactive) | 15.1 µM (inactive) | 6.62 µM (inactive) | 5.5 µM (inactive) | 5.46 µM (inactive) | 13.2 µM (inactive) | 8.15 µM (inactive) | 14.9 µM (inactive) | 7.66 µM (inactive) | 8.41 µM (inactive) | 5.83 µM (inactive) | 3.93 µM (inactive) | 8.09 µM (inactive) | 15.8 µM (inactive) | – | 17.7 µM (inactive) | 7.43 µM (inactive) |
| CSc1[nH]cnc1C(N)=S | > 100 µM (inactive) | > 100 µM (inactive) | > 100 µM (inactive) | > 100 µM (inactive) | > 100 µM (inactive) | > 100 µM (inactive) | > 100 µM (inactive) | > 100 µM (inactive) | > 100 µM (inactive) | > 100 µM (inactive) | > 100 µM (inactive) | > 100 µM (inactive) | > 100 µM (inactive) | > 100 µM (inactive) | > 100 µM (inactive) | > 100 µM (inactive) | – | – | > 100 µM (inactive) | > 100 µM (inactive) |
| COCCN(C(C)=O)C1CCC2(SCCS2)c2[nH]c3ccccc3c21 (stereo not drawn) | > 100 µM (inactive) | > 100 µM (inactive) | 35.5 µM (inactive) | > 100 µM (inactive) | > 100 µM (inactive) | > 100 µM (inactive) | > 100 µM (inactive) | > 100 µM (inactive) | – | > 100 µM (inactive) | > 100 µM (inactive) | > 100 µM (inactive) | > 100 µM (inactive) | > 100 µM (inactive) | > 100 µM (inactive) | > 100 µM (inactive) | – | > 100 µM (inactive) | – | – |
| COc1ccc(C2OCCN2C)cc1 (stereo not drawn) | > 100 µM (inactive) | 36.9 µM (inactive) | > 100 µM (inactive) | > 100 µM (inactive) | > 100 µM (inactive) | > 100 µM (inactive) | > 100 µM (inactive) | > 100 µM (inactive) | > 100 µM (inactive) | > 100 µM (inactive) | > 100 µM (inactive) | > 100 µM (inactive) | > 100 µM (inactive) | > 100 µM (inactive) | > 100 µM (inactive) | > 100 µM (inactive) | > 100 µM (inactive) | – | > 100 µM (inactive) | > 100 µM (inactive) |
| Cc1ccc(NC(=O)c2cc(S(=O)(=O)N3CCNNC3=O)c(S)cc2Cl)cc1 | > 100 µM (inactive) | > 100 µM (inactive) | 28.2 µM (inactive) | > 100 µM (inactive) | > 100 µM (inactive) | > 100 µM (inactive) | > 100 µM (inactive) | > 100 µM (inactive) | > 100 µM (inactive) | 26.5 µM (inactive) | > 100 µM (inactive) | > 100 µM (inactive) | > 100 µM (inactive) | – | > 100 µM (inactive) | 27.3 µM (inactive) | > 100 µM (inactive) | > 100 µM (inactive) | > 100 µM (inactive) | > 100 µM (inactive) |
| C#CCOC(=O)C(N)CSSCC(N)C(=O)O (stereo not drawn) | > 100 µM (inactive) | > 100 µM (inactive) | > 100 µM (inactive) | > 100 µM (inactive) | > 100 µM (inactive) | > 100 µM (inactive) | > 100 µM (inactive) | > 100 µM (inactive) | > 100 µM (inactive) | > 100 µM (inactive) | > 100 µM (inactive) | > 100 µM (inactive) | > 100 µM (inactive) | – | > 100 µM (inactive) | > 100 µM (inactive) | > 100 µM (inactive) | > 100 µM (inactive) | > 100 µM (inactive) | > 100 µM (inactive) |
| O=C1C=C(O)C(=O)c2c(O)ccc(O)c21 | > 100 µM (inactive) | > 100 µM (inactive) | > 100 µM (inactive) | 88.5 µM (inactive) | 92 µM (inactive) | > 100 µM (inactive) | > 100 µM (inactive) | > 100 µM (inactive) | > 100 µM (inactive) | > 100 µM (inactive) | > 100 µM (inactive) | > 100 µM (inactive) | > 100 µM (inactive) | 51.9 µM (inactive) | > 100 µM (inactive) | > 100 µM (inactive) | > 100 µM (inactive) | – | > 100 µM (inactive) | > 100 µM (inactive) |
| COC1=C2CC(C)CC(OC)C(OC(=O)CCCN)C(C)/C=C(\C)C(OC(N)=O)C(OC)/C=C\C=C(/C)C(=O)NC(=CC1=O)C2=O (stereo not drawn) | 15.4 µM (inactive) | 18.7 µM (inactive) | 2.29 µM (inactive) | 2.29 µM (inactive) | 0.431 µM (active) | 25.5 µM (inactive) | 11.6 µM (inactive) | 2.97 µM (inactive) | 10.5 µM (inactive) | 0.431 µM (active) | 16.3 µM (inactive) | 3.68 µM (inactive) | 18.5 µM (inactive) | 2.43 µM (inactive) | 10.3 µM (inactive) | 3.12 µM (inactive) | 7 µM (inactive) | 5.5 µM (inactive) | 6 µM (inactive) | 4.56 µM (inactive) |
| C=C1OC2OC(C)C(NC(=O)OCC(Cl)(Cl)Cl)C(OC(C)=O)C2O1 (stereo not drawn) | > 100 µM (inactive) | – | > 100 µM (inactive) | > 100 µM (inactive) | > 100 µM (inactive) | > 100 µM (inactive) | > 100 µM (inactive) | > 100 µM (inactive) | > 100 µM (inactive) | > 100 µM (inactive) | 43.6 µM (inactive) | > 100 µM (inactive) | > 100 µM (inactive) | > 100 µM (inactive) | > 100 µM (inactive) | > 100 µM (inactive) | > 100 µM (inactive) | > 100 µM (inactive) | > 100 µM (inactive) | > 100 µM (inactive) |
| O=c1c2cc(Cl)cc(Cl)c2oc2nc3n(c(=O)c12)CCCS3 | > 100 µM (inactive) | > 100 µM (inactive) | > 100 µM (inactive) | > 100 µM (inactive) | > 100 µM (inactive) | > 100 µM (inactive) | > 100 µM (inactive) | > 100 µM (inactive) | 18.8 µM (inactive) | 16.7 µM (inactive) | > 100 µM (inactive) | > 100 µM (inactive) | > 100 µM (inactive) | – | > 100 µM (inactive) | > 100 µM (inactive) | > 100 µM (inactive) | > 100 µM (inactive) | > 100 µM (inactive) | > 100 µM (inactive) |
| [O-][S+](c1ccccc1)C1CC2CC3(CCC21O)OCCO3 (stereo not drawn) | > 100 µM (inactive) | > 100 µM (inactive) | > 100 µM (inactive) | > 100 µM (inactive) | > 100 µM (inactive) | > 100 µM (inactive) | > 100 µM (inactive) | > 100 µM (inactive) | > 100 µM (inactive) | > 100 µM (inactive) | > 100 µM (inactive) | > 100 µM (inactive) | > 100 µM (inactive) | > 100 µM (inactive) | > 100 µM (inactive) | > 100 µM (inactive) | > 100 µM (inactive) | – | > 100 µM (inactive) | > 100 µM (inactive) |
| CN(C)CCNC(=O)c1ccc(NC(=O)c2nc([N+](=O)[O-])cn2C)cc1 | – | > 100 µM (inactive) | > 100 µM (inactive) | > 100 µM (inactive) | > 100 µM (inactive) | > 100 µM (inactive) | > 100 µM (inactive) | > 100 µM (inactive) | > 100 µM (inactive) | > 100 µM (inactive) | > 100 µM (inactive) | > 100 µM (inactive) | > 100 µM (inactive) | > 100 µM (inactive) | > 100 µM (inactive) | > 100 µM (inactive) | > 100 µM (inactive) | > 100 µM (inactive) | > 100 µM (inactive) | > 100 µM (inactive) |
| Cc1cc(S(=O)(=O)Nc2nc3ccccc3nc2-c2ccc(Cl)cc2)c(S)cc1Cl | 19 µM (inactive) | – | 23.1 µM (inactive) | 22.7 µM (inactive) | 16.4 µM (inactive) | 16.4 µM (inactive) | 27 µM (inactive) | 17.3 µM (inactive) | 15.9 µM (inactive) | 13.6 µM (inactive) | 23.1 µM (inactive) | 21 µM (inactive) | 16.4 µM (inactive) | 17.5 µM (inactive) | 17.7 µM (inactive) | 23 µM (inactive) | 14.6 µM (inactive) | 25.6 µM (inactive) | 12.2 µM (inactive) | 19.3 µM (inactive) |
